Structures can show the parent of a compound that is named as a salt.
System: not given
Assay: not given
Settings: not given

Which melting point does the source give for `Cl.O=C(N[C@@H](Cc1cc(F)cc(F)c1)[C@H](O)CNC1(c2cccc(C(F)(F)F)c2)CC1)c1cccc2c1CCN(Cc1ccccc1)C2=O` here?
The melting point was 178 °C.

With `CCCC(CCC)N1Cc2c(C(=O)N[C@@H](Cc3cc(F)cc(F)c3)[C@H](O)CNC3(c4cccc(C(F)(F)F)c4)CC3)cc(N(C)S(C)(=O)=O)cc2C1=O.Cl` as the compound, how does the melting point read?
The melting point was 194 °C.

Which melting point does the source give for `CC(c1ccc(F)cc1)N1CCc2c(C(=O)N[C@@H](Cc3cc(F)cc(F)c3)[C@H](O)CNC3(c4cccc(C(F)(F)F)c4)CC3)cccc2C1=O.Cl` (some centres unmarked) here?
Its melting point is 157 °C.

With `CCCC(CCC)N1CCc2c(C(=O)N[C@@H](Cc3ccccc3)[C@H](O)CNC3(c4cccc(C(F)(F)F)c4)CC3)cccc2C1=O.Cl` as the compound, how does the melting point read?
The melting point was 174 °C.

For `CCCCCN1CCc2c(C(=O)N[C@@H](Cc3cc(F)cc(F)c3)[C@H](O)CNC3(c4cccc(C(F)(F)F)c4)CC3)cccc2C1=O.Cl`, which melting point is on record?
The melting point was 165 °C.

For `CCCC(CCC)N1CCc2c(C(=O)N[C@@H](Cc3cc(F)cc(F)c3)[C@H](O)CNC3(c4cccc(C(F)(F)F)c4)CC3)cc(C(F)(F)F)cc2C1=O.Cl`, which melting point is on record?
The melting point was 196 °C.

For `CCCC(CCC)N1CCc2c(C(=O)N[C@@H](Cc3cc(F)cc(F)c3)[C@H](O)CNC3(c4cccc(C(F)(F)F)c4)CC3)cccc2C1=O.Cl`, which melting point is on record?
The melting point was 172 °C.

Target: T1, purified recombinant form of human BACE1 aspartyl protease (Homo sapiens, UniProt P56817)
T1 construct: hexahistidine (C); made in house; host or cells: Drosophila cells
Assay: in vitro inhibition of β-secretase (BACE1) activity, FRET cleavage of fluorogenic peptide substrate FS1
Type: biochemical
Settings: purified enzyme 10 nM, substrate FS1 5 μM, sodium acetate buffer pH 4.5, 37° C., 45 minutes; read-out: IC50 (concentration of product giving 50% inhibition of the enzyme activity)
Method: The tests consisted in measuring the in vitro inhibition of the β-secretase activity by the compounds of the invention.
The β-secretase activity measured corresponds to that of a purified recombinant form of human BACE1 aspartyl protease (the latter comprising a hexahistidine tag at the C-terminal position) produced by expression in Drosophila cells. The purified enzyme is conditioned in TRIS buffer (18 mM) at pH 7.5 containing NaCl (0.45M), MnCl2 (0.9 mM), CaCl2 (0.9 mM), α-D-methylmannoside and 10% glycerol, and stored at −80° C. until use.
The BACE1 activity is measured from the cleavage of a fluorogenic peptide substrate, known as FS1, described originally by Ermolieff et Coll. (2000, Biochemistry, 39, 12450-12456), and based on the principle of fluorescence resonance energy transfer (FRET); the cleavage of the FS1 peptide is measured from the increase of the fluorescent signal emitted by the EDANS (or 5-[(2-aminoethyl)amino]naphthalene-[…]) group. The test is carried out in a 96-well microplate in order to determine the inhibition of the enzyme activity by the products of the invention. The substrate FS1 is solubilized to a concentration of 1 mM in 100% dimethylsulfoxide (DMSO) and stored at −20° C. until use. The dilutions of the products to be tested are prepared in DMSO starting from a 10 mM stock solution. The products of the invention, at final concentrations of 0.003 to 10 μM are incubated at 37° C. with the substrate FS1 (final concentration of 5 μM) and the purified enzyme (final concentration of 10 nM) in the sodium acetate buffer (0.1M), pH 4.5 containing 0.02% of CHAPS detergent and 200 mM NaCl for 45 minutes. […] When the incubation is finished, the fluorescence is measured in a spectrofluorimeter, at the excitation wavelength of 355 nm and emission wavelength of 509 nm. For each product concentration tested, the fluorescent signal is compared to the maximum signal obtained when the substrate FS1 is only incubated with the enzyme.
The inhibitory activity of the products of the invention is then evaluated by the measurement of the IC50 (concentration of product giving 50% inhibition of the enzyme activity) using a non-linear regression analysis (computer application software XLfit, IDBS™).

T1 sequence (P56817 46-501): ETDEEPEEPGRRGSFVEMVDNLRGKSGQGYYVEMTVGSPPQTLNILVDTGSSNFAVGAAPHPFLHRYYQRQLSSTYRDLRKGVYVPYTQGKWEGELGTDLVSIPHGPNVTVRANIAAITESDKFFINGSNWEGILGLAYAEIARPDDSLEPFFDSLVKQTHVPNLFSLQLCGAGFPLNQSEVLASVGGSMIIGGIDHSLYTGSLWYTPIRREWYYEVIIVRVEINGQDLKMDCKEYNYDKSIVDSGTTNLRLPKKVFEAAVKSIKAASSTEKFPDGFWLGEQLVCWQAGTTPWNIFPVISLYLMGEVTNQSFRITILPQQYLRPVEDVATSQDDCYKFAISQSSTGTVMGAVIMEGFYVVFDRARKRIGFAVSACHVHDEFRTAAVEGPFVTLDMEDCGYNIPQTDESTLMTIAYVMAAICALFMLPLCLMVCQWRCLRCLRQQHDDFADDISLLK

For `CCCC(CCC)N1CCc2c(C(=O)N[C@@H](Cc3cc(F)cc(F)c3)[C@H](O)CNC3(c4cccc(C(F)(F)F)c4)CC3)cc(-c3ccccc3C#N)cc2C1=O` [Compound 17, N-[(1S,2R)-1-(3,5-difluorobenzyl)-2-hydroxy-3-({1-[3-(trifluoromethyl)phenyl]cyclopropyl}amino)propyl]-7-(2-cyanophenyl)-1-oxo-2-(1-propylbutyl)-1,2,3,4-tetrahydroisoquinoline-5-carboxamide hydrochloride (1:1)], which IC50 is on record?
The IC50 was 630 nM.

With `CCCC(CCC)N1CCc2c(C(=O)N[C@@H](Cc3cc(F)cc(F)c3)[C@H](O)CNC3(c4cccc(C(F)(F)F)c4)CC3)cc(-c3cccc(C#N)c3)cc2C1=O` [Compound 16, N-[(1S,2R)-1-(3,5-difluorobenzyl)-2-hydroxy-3-({1-[3-(trifluoromethyl)phenyl]cyclopropyl}amino)propyl]-7-(3-cyanophenyl)-1-oxo-2-(1-propylbutyl)-1,2,3,4-tetrahydroisoquinoline-5-carboxamide hydrochloride (1:1)] as the compound, how does the IC50 read?
The IC50 was 390 nM.

With `CCCC(CCC)N1CCc2c(C(=O)N[C@@H](Cc3cc(F)cc(F)c3)[C@H](O)CNC3(c4cccc(C(F)(F)F)c4)CC3)cc(N(C)S(C)(=O)=O)cc2C1=O` [Compound 9, N-[(1S,2R)-1-(3,5-difluorobenzyl)-2-hydroxy-3-({1-[3-(trifluoromethyl)phenyl]cyclopropyl}amino)propyl]-7-[methyl(methylsulfonyl)amino]-1-oxo-2-(1-propylbutyl)-1,2,3,4-tetrahydroisoquinoline-5-carboxamide hydrochloride (1:1)] as the compound, how does the IC50 read?
The IC50 was 48 nM.

For `CCCC(CCC)N1Cc2c(C(=O)N[C@@H](Cc3ccccc3)[C@H](O)CNCc3cccc(C(F)(F)F)c3)cccc2C1=O` [Compound 1, N-[(1S,2R)-1-benzyl-2-hydroxy-3-{[3-(trifluoromethyl)benzyl]amino}propyl]-1-oxo-2-(1-propylbutyl)isoindoline-4-carboxamide hydrochloride (1:1)], which IC50 is on record?
Its IC50 is 770 nM.

Reference: patent US8372864B2, “1-oxo-isoindoline-4-carboxamide and 1-oxo-1,2,3,4-tetrahydroisoquinoline-5-carboxamide derivatives, preparation and therapeutic use thereof” (Sanofi, priority 2007, dated 2013)
